Measurements from patent US20240285642A1, “EGFR INHIBITOR FOR THE TREATMENT OF HEAD AND NECK CANCER” (NATCO PHARMA LIMITED, priority 2021, published 2024).
Like-named read-outs stand apart in the source and are kept apart here.

How the values were obtained:
[1] = test system: head and neck cancer cell line; settings: Parkinson et al 2007; cited from earlier work
[2] = Phase I clinical study: plasma pharmacokinetics (LC-MS/MS); format: in vivo, human; settings: 100 mg/day to 500 mg/day
Procedure: Secondary: To evaluate the single and multiple dose pharmacokinetics and anti-tumour activity of NRC-2694-A. An open label, prospective, non-randomized, multicentre, dose escalation study was performed. The starting dose selected for this study was 100 mg/day and the maximum dose received was 500 mg/day. Eligible subjects were housed in a unit of the hospital for 12 days, beyond which patients who tolerated the drug were treated on out-patient (ambulatory) basis. Pharmacokinetic Evaluation: Estimation of NRC-2694 in plasma was done using a validated LC-MS/MS method. Based on the plasma concentration data, non-compartmental pharmacokinetic variables viz. area under the curve (AUC), peak plasma concentration (Cmax), time to peak plasma concentration (Tmax), and elimination rate constant, volume of distribution, half-life and clearance were calculated for single dose (on Day 1) as well as at steady state (on Day 12). Blood samples at pre-dose, 0.5, 1, 1.5, 2, 2.5, 3, 4, 6, 8, 12 and 24 hrs were collected in K2 EDTA prefilled vacutainers.

[3] = test system: recurrent squamous cell carcinoma of the head and neck; experiment: Phase I clinical study: tumour evaluation per RECIST 1.1; format: in vivo, human
Procedure: A Phase I clinical study was conducted to evaluate the safety, pharmacokinetics and anti-tumour activity of NRC-2694-A (NRC-2694 dihydrochloride) in patients with recurrent squamous cell carcinoma of the head and neck.
An open label, prospective, non-randomized, multicentre, dose escalation study was performed. The starting dose selected for this study was 100 mg/day and the maximum dose received was 500 mg/day. Eligible subjects were housed in a unit of the hospital for 12 days, beyond which patients who tolerated the drug were treated on out-patient (ambulatory) basis.
Tumour Evaluation: Change in the size of evaluable tumour from base line was evaluated as per RECIST criteria (version 1.1).

[4] = test system: recurrent and/or metastatic squamous cell carcinoma of the head and neck (R/M HNSCC); experiment: Phase II randomized study: efficacy (PFS, ORR, RECIST 1.1); format: in vivo, human
Description: Primary objective: The primary objective was to evaluate the efficacy of NRC-2694-A in combination with platinum plus paclitaxel regimen compared to platinum plus paclitaxel regimen alone in terms of progression free survival (PFS) in patients with recurrent and/or metastatic squamous cell carcinoma of the head and neck (R/M HNSCC).
Secondary objectives: The secondary objective was (a) to compare the objective response rate in patients with R/M HNSCC treated with NRC-2694-A in combination with platinum plus paclitaxel regimen compared to platinum plus paclitaxel regimen alone and (b) to compare the safety and tolerability of the two regimens.
The study was an open-label, prospective, randomized, active controlled, multicentric phase-II study of NRC-2694-A in patients with histologically/cytologically confirmed HNSCC with radiological progression (recurrence and/or metastasis).
Patients between 18 and 65 years of age with life expectancy≥3 months having recurrent and/or metastatic disease for whom cisplatin/carboplatin plus paclitaxel regimen was planned were eligible for the study. Those who fit all the inclusion and exclusion criteria were randomized to receive either chemotherapy+NRC-2694-A (study drug arm) or chemotherapy alone (control arm). • Arm-I (study drug arm): NRC-2694-A+cisplatin/carboplatin and paclitaxel • Arm-II (control arm): cisplatin/carboplatin and paclitaxel
During the study, 300 mg NRC-2694-A was administered once daily in the morning with or without food with 240 ml of water. The dose of cisplatin was 100 mg/m^2 of body surface area as intravenous infusion over an hour. Alternatively, the dose of carboplatin was based on the target area under the curve (AUC) equivalent to 5 mg/mL/min, as an infusion over 1 hour. The choice of platinum compound was per the investigator's discretion and was dependent on the type of platinum received during prior therapy, avoiding repetition. Paclitaxel was given at a dose of 175 mg/m^2 of body surface area as an infusion over 3 hours. • Monotherapy: After completion of 6 cycles of chemotherapy in control arm or in study drug arm, patients received 300 mg of NRC-2694-A once daily as a monotherapy.

[5] = Phase I clinical study: safety, MTD and DLT; format: in vivo
Procedure: An open label, prospective, non-randomized, multicentre, dose escalation study was performed. The starting dose selected for this study was 100 mg/day and the maximum dose received was 500 mg/day.
Safety: Assessments were performed within 7 days before administration of study medication and subsequently on Days 12, 18, 24, 30, 45, 60, 75 and 90. However, for assessing the DLT and MTD first 30 day safety data was considered.

[6] = test system: R/M HNSCC; settings: cited from earlier work
[7] = Stage-II monotherapy, among the 4 patients with partial response in Stage-I

## C#Cc1cccc(Nc2ncnc3cc(OC)c(OCCCN4CCOCC4)cc23)c1 [NRC-2694, (3-Ethynyl-phenyl)-[7-methoxy-6-(3-morpholin-4-yl-propoxy)-quinazolin-4-yl]-amine]
[1]
  inhibition of growth of a head and neck cancer cell line grafted into athymic female mice: low to moderate inhibition

## C#Cc1cccc(Nc2ncnc3cc(OC)c(OCCCN4CCOCC4)cc23)c1.Cl.Cl [NRC-2694-A, N-(3-ethynylphenyl)-7-methoxy-6-(3-morpholinopropoxy) quinazolin-4-amine dihydrochloride]
[2]; Day-1 and Day-12 concentrations
  plasma concentration versus dose: dose dependent increase
[2]; patients
  relationship of pharmacokinetics to dose: Dose proportional relationship
[3]; Subject No. 0202, Head and Neck, 120 days completed
  Outcome (tumour evaluation): Stable Disease
[3]; Subject No. 0207, Head and Neck, 79 days completed
  Outcome (tumour evaluation): Stable Disease
[3]; Subject No. 0211, Head and Neck, 120 days completed
  Outcome (tumour evaluation): Stable Disease
[3]; Subject No. 0212, Head and Neck, 120 days completed
  Outcome (tumour evaluation): Partial Response
[3]; Subject No. 0216, Head and Neck, 120 days completed
  Outcome (tumour evaluation): Stable Disease
[3]; patients with recurrent squamous cell carcinoma of the head and neck, oral once daily
  anti-tumour activity (effect on tumour size): tumour size reduction or tumour size stasis
[4]; Stage-II monotherapy 300 mg once daily, Arm-I patients with complete response in Stage-I
  patients in whom complete response was maintained: 2 patients
[4]; [7]
  patients continuing to have partial response: one
  patients with progressive disease: 1 patients
  patients with stable disease: 2 patients
[4]; Stage-II monotherapy, patient with progressive disease in Stage-I
  patients continuing to have progressive disease: 1 patients
[4]; Stage-II monotherapy, patients from Arm-II with partial response and stable disease earlier
  patients achieving complete response: 2 patients
[4]; Stage-II monotherapy, patients with stable disease in Stage-I
  patients continuing to have stable disease: Two
[5]; once daily administration, Phase I
  safety profile: tolerable safety profile
[5]; oral once daily, dose escalation 100 to 500 mg/day, first 30 day safety data
  MTD (maximum tolerated dose): 400 mg/day

## Pembrolizumab: approved monoclonal antibody, immunotherapy for R/M HNSCC
[6]; Pembrolizumab alone, CPS>20 population
  ORR: 26%
[6]; combination of Pembrolizumab and platinum-based chemotherapy
  ORR: 36%
